Assay results from US4722931A, “Calcium antagonist” (Laboratorios Delagrange, priority 1984, dated 1988).
Where a name gives a salt, the structure may show the parent alone. Read-outs that look alike come from different tables or passages of the source.

Tests used:
[1] = system: KCl depolarized rat aorta; assay: Inhibitory effects on rat aorta contractions induced by KCl (in vitro); assay type: cell-based, Wistar rats; conditions: for activity relative to compound 7 (IC 50): same test, compared with compound 7
Source text: Inhibitory effects on rat aorta contractions induced by KCl: […]

[2] = system: SHR rats; assay: Antihypertensive efficacy in SHR rats (systolic blood pressure, tail cuff); assay type: in vivo, spontaneously hypertensive rats (SHR); conditions: for maximum decrease of blood pressure, mm Hg / inhibition in vivo at 8 mg/kg: n = 5; for inhibition in vivo at 8 mg/kg: Rattus norvegicus, po, Table 2, read-out: maximum decrease of blood pressure, %; for in vivo antihypertensive activity, in words: p.os
Description: The systolic blood pressure was measured on the tail of conscious, spontaneously hypertensive rats (SHR), by means of an inflatable rubber cuff and a Digital Pressure meter LE 5000 (Letica Instruments, Barcelone, Spain). Measurements were carried out before administration of the substance, as well as 30 minutes, 1 h, 2, 6, and 24 hours afterwards, respectively. The animals were kept in pre-warmed plastic cylinders during the measurements. The rats with a blood pressure lesser than 160 mm. Hg were discarded. Each compound was tested in 5 animals. Compounds of this invention, or nitrendipine which was used as positive control were given orally in the form of suspensions in 5% acacia gum.

[3] = KCl 80 mM depolarized rat aorta, Table 1, read-out: IC × 10^-8
[4] = rat aorta contractions induced by KCl 80 mM
[5] = rat aorta contractions induced by KCl 80 mM, read-out: IC 50

SMILES | IC50 [1, 3] | maximum decrease of blood pressure, mm Hg ([2]; 8 mg./kg. p.os) | inhibition in vivo at 8 mg/kg ([2]; 8 mg./kg. p.os) | also measured
CCOC(=O)C1=C(C)NC(C)=C(C(=O)OC)C1c1cccc([N+](=O)[O-])c1 (stereo not drawn) [nitrendipine, reference compound] | – | 54 mm Hg | 26.3% | –
CCOC(=O)C1=C(C)NC(C)=C(C(=O)OC)C1c1ccccc1OCOC (stereo not drawn) [Compound 6, 1,4-dihydro-2,6-dimethyl-4-(2'-methoxymethoxy-phenyl)-3,5-pyridinedicarboxylic acid, ethyl methyl ester] | 12 nM | 34 mm Hg | 15.2% | in vivo antihypertensive activity, in words ([2]; SHR rats): also active in vivo
CCOC(=O)C1=C(C)NC(C)=C(C(=O)OC)C1c1cc(OC)c(OC)c(OC)c1 (stereo not drawn) [Compound 1, 1,4-dihydro-2,6-dimethyl-4-(3',4',5'-trimethoxyphenyl)-3,5-pyridinedicarboxylic acid, methyl ethyl ester] | > 100 nM | 9.8 mm Hg | 5% | in vitro activity, in words [1, 4]: little or no activity
COCCOC(=O)C1=C(C)NC(C)=C(C(=O)OCCOC)C1c1cccc2c1OCO2 [Compound 16, 1,4-dihydro-2,6-dimethyl-4-(2',3'-methylenedioxyphenyl)-3,5-pyridinedicarboxylic acid, dimethoxyethyl ester] | > 100 nM | – | – | –
CCOC(=O)C1=C(C)NC(C)=C(C(=O)OC)C1c1cccc2c1OCCO2 (stereo not drawn) [Compound 8, 1,4-dihydro-2,6-dimethyl-4-(2',3'-ethylenedioxyphenyl)-3,5-pyridinedicarboxylic acid, methyl ethyl ester] | 45 nM | 12 mm Hg | 7.2% | in vitro activity, in words [1, 4]: rather active in vitro; in vitro activity, in words ([1]; rat aorta contractions induced by KCl 80 mM, listed as IQB-838 V): very active; in vivo antihypertensive activity, in words ([2]; SHR rats): a little antihypertensive effect; in vivo antihypertensive activity, in words ([2]; SHR rats, listed as IQB-838 V): very active
CC1=C(C(=O)OC(C)C)C(c2cccc3c2OCO3)C(C(=O)OC(C)C)=C(C)N1 [Compound 12, 1,4-dihydro-2,6-dimethyl-4-(2',3'-methylenedioxyphenyl)-3,5-pyridinedicarboxylic acid, diisopropyl ester] | > 100 nM | – | – | –
CCOC(=O)C1=C(C)NC(C)=C(C(=O)OC)C1c1cccc2c1OCO2 (stereo not drawn) [Compound 7, 1,4-dihydro-2,6-dimethyl-4-(2',3'-methylenedioxyphenyl)-3,5-pyridinedicarboxylic acid, ethyl methyl ester] | 3.1 nM | 65 mm Hg | 33% | in vitro activity, in words [1, 4]: the most active within the series of methyl ethyl ester derivatives; in vitro activity, in words ([1]; rat aorta contractions induced by KCl 80 mM, listed as IQB-837 V): very active; IC50 [1, 5]: 3.5 nM; decreasing blood pressure by ([2]; 8 mg./kg. p.os, SHR rats): 30%; in vivo antihypertensive activity, in words ([2]; SHR rats): as active as nitrendipine; in vivo antihypertensive activity, in words ([2]; SHR rats, listed as IQB-837 V): very active
COC(=O)C1=C(C)NC(C)=C(C(=O)OC)C1c1cccc2c1OCO2 [Compound 9, 1,4-dihydro-2,6-dimethyl-4-(2',3'-methylenedioxyphenyl)-3,5-pyridinedicarboxylic acid, dimethyl ester] | 83 nM | – | – | –
COC(=O)C1=C(C)NC(C)=C(C(=O)OCC(C)C)C1c1cccc2c1OCO2 (stereo not drawn) [Compound 10, 1,4-dihydro-2,6-dimethyl-4-(2',3'-methylenedioxyphenyl)-3,5-pyridinedicarboxylic acid, methyl isobutyl ester] | 12 nM | 48 mm Hg | 23.5% | in vivo antihypertensive activity, in words ([2]; SHR rats): also active in vivo
COC(=O)C1=C(C)NC(C)=C(C(=O)OC)C1c1ccccc1[N+](=O)[O-] [Nifedipine, nifedipine, reference compound] | 7.1 nM | – | – | IC50 [1, 5]: 7.5 nM; activity relative to compound 7 (IC 50) [1]: about two times less active than compound 7
COC(=O)C1=C(C)NC(C)=C(C(=O)OCc2ccccn2)C1c1cccc2c1OCO2 (stereo not drawn) [Compound 17, 1,4-dihydro-2,6-dimethyl-4-(2',3'-methylenedioxyphenyl)-3,5-pyridinedicarboxylic acid, methyl, 2-pyridylmethyl ester, hydrochloride] | > 100 nM | – | – | –
CCOC(=O)C1=C(C)NC(C)=C(C(=O)OC(C)C)C1c1cccc2c1OCO2 (stereo not drawn) [Compound 15, 1,4-dihydro-2,6-dimethyl-4-(2',3'-methylenedioxyphenyl)-3,5-pyridinedicarboxylic acid, ethyl isopropyl ester] | 2.1 nM | 62 mm Hg | 32.4% | IC50 [1, 5]: 2.1 nM; activity relative to compound 7 (IC 50) [1]: as active as compound 7; in vivo antihypertensive activity, in words ([2]; SHR rats): also active in vivo
CCOC(=O)C1=C(C)NC(C)=C(C(=O)OC)C1c1ccc(OC)c(OC)c1 (stereo not drawn) [Compound 2, 1,4-dihydro-2,6-dimethyl-4-(3',4'-dimethoxyphenyl)-3,5-pyridinedicarboxylic acid, methyl ethyl ester] | > 100 nM | – | – | in vitro activity, in words [1, 4]: little or no activity

Now from value to compound, other results behind:

IC50 [1, 3] | SMILES | maximum decrease of blood pressure, mm Hg ([2]; 8 mg./kg. p.os) | inhibition in vivo at 8 mg/kg ([2]; 8 mg./kg. p.os) | also measured
92 nM | CCOC(=O)C1=C(C)NC(C)=C(C(=O)OC)C1c1cc(OC)cc(OC)c1 (stereo not drawn) [Compound 5, 1,4-dihydro-2,6-dimethyl-4-(3',5'-dimethoxyphenyl)-3,5-pyridinedicarboxylic acid, ethyl methyl ester] | – | – | –
> 100 nM | CCOC(=O)C1=C(C)NC(C)=C(C(=O)OC)C1c1cc(OC)c(O)c(OC)c1 (stereo not drawn) [Compound 3, 1,4-dihydro-2,6-dimethyl-4-(3',5'-dimethoxy-4'-hydroxyphenyl)-3,5-pyridinedicarboxylic acid, methyl ethyl ester] | – | – | in vitro activity, in words [1, 4]: little or no activity
91 nM | COCCOC(=O)C1=C(C)NC(C)=C(C(=O)OC(C)C)C1c1cccc2c1OCO2 (stereo not drawn) [Compound 11, 1,4-dihydro-2,6-dimethyl-4-(2',3'-methylenedioxyphenyl)-3,5-pyridinedicarboxylic acid, isopropyl methoxyethyl ester] | – | – | –
> 100 nM | CCOC(=O)C1=C(C)NC(C)=C(C(=O)OC)C1c1cccc(OC)c1OC (stereo not drawn) [Compound 4, 1,4-dihydro-2,6-dimethyl-4-(2',3'-dimethoxyphenyl)-3,5-pyridinedicarboxylic acid, ethyl methyl ester] | – | – | –
34 nM | COC(=O)C1=C(C)NC(C)=C(C(=O)OC(C)C)C1c1cccc2c1OCO2 (stereo not drawn) [Compound 13, 1,4-dihydro-2,6-dimethyl-4-(2',3'-methylenedioxyphenyl)-3,5-pyridinedicarboxylic acid, methyl isopropyl ester] | 10 mm Hg | 5.2% | –
> 100 nM | CCOC(=O)C1=C(C)NC(C)=C(C(=O)OCC)C1c1cccc2c1OCO2 [Compound 14, 1,4-dihydro-2,6-dimethyl-4-(2',3'-methylenedioxyphenyl)-3,5-pyridinedicarboxylic acid, diethyl ester] | – | – | –
